Experimental data published in patent publication US12599672B2, “KRAS proteolysis targeting chimeras” (PAQ Therapeutics Inc., priority 2023, dated 2026).

Columns and labels:
Type in all cases: cell-based
[1] = molecular target: T1, KRAS (Homo sapiens, UniProt P01116); test: KRASamp MSD assay; conditions: KE39 (KRAS amplified) cells, treated with test compounds for 24 hr, MSD readout of KRAS degradation
T1 construct: endogenous in cells; host or cells: KE39 (KRAS amplified) cells
Summary of the method: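 Degradation DC50 derived by curve fitting, with KRAS levels quantified by MSD electrochemiluminescence (capture/detection antibodies, recombinant WT KRAS standard). Lysates prepared from KE39 cells (KRAS amplified) exposed to test compounds for 24 hr.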

[2] = molecular target: T2, KRAS G12V (Homo sapiens, UniProt P01116, G12V); test: KRAS G12V HiBit assay; conditions: SW620-KRAS (G12V)-HiBit-KI cells, compound treatment for 24 hours, class symbols
T2 construct: SW620-KRAS (G12V)-HiBit-KI cell (Pharmaron); host or cells: SW620-KRAS (G12V)-HiBit-KI cells (HiBiT knock-in at the endogenous KRAS locus)
Summary of the method: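 Luminescence from lytic Nano-Glo HiBiT detection with LgBiT read KRAS G12V levels after 24 h compound exposure. Dilutions were 10-point, 3-fold, from a 0.3 mM DMSO stock. Degradation activity was normalised to cells given 0.1% DMSO alone.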

[3] = molecular target: T3, KRAS G12D (Homo sapiens, UniProt P01116, G12D); test: KRAS G12D HiBit assay; conditions: AsPc-1-KRAS (G12D)-HiBit-KI cell, compound treatment for 24 hours; for DC50: absolute DC50
T3 construct: AsPc-1-KRAS (G12D)-HiBit-KI cell (Pharmaron); host or cells: AsPc-1-KRAS (G12D)-HiBit-KI cells (HiBiT knock-in at the endogenous KRAS locus)
Summary of the method: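 HiBiT luminescence, detected by adding lytic buffer, substrate and LgBiT protein, served as the KRAS G12D read-out. Compounds, serially diluted 3-fold over 10 points from 0.3 mM DMSO stock, were on cells for 24 h; percent inhibition normalized to cells given 0.1% DMSO only.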

[4] = numeric bounds given in place of class symbols

T3 sequence (P01116 1-188 isoform P01116-2 G12D): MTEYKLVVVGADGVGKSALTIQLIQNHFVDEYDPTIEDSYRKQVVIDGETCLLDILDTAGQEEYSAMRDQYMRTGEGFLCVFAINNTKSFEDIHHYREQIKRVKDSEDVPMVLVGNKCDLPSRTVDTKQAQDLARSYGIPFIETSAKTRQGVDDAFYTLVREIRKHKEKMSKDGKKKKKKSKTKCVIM
T1 sequence (P01116 1-188 isoform P01116-2): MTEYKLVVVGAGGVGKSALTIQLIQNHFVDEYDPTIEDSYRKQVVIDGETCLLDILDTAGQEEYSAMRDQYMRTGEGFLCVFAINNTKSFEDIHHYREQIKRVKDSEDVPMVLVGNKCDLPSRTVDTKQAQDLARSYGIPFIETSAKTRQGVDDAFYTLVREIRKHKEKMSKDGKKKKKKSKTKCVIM
T2 sequence (P01116 1-188 isoform P01116-2 G12V): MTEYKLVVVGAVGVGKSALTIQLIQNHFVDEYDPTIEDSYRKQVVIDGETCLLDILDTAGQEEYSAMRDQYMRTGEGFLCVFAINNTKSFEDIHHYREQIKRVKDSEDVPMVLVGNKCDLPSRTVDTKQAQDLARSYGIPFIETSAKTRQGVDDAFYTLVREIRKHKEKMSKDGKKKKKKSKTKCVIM

## C#Cc1c(F)ccc2cc(O)cc(-c3ncc4c(N5CCC[C@@](C)(O)C5)nc(OC[C@@]56CCCN5[C@H](COC(=O)N5CCCC7(C5)CN(C5CCN(c8ccc9c(c8)n(C)c(=O)n9C8CCC(=O)NC8=O)CC5)C7)CC6)nc4c3F)c12 (stereo partly drawn) [Compound 328, ((3S,7aS)-7a-(((7-(8-ethynyl-7-fluoro-3-hydroxynaphthalen-1-yl)-8-fluoro-4-((R)-3-hydroxy-3-methylpiperidin-1-yl)pyrido[4,3-d]pyrimidin-2-yl)oxy)methyl)hexahydro-1H-pyrrolizin-3-yl)methyl 2-(1-(1-(2,6-dioxopiperidin-3-yl)-3-methyl-2-oxo-2,3-dihydro-1H-benzo[d]imidazol-5-yl)piperidin-4-yl)-2,6-diazaspiro[3.5]nonane-6-carboxylate]
[1]
  DC50: ≥ 10 nM
[2]
  DC50: > 100 nM
[3]; [4]
  DC50: > 100 nM

## CCc1c(F)ccc2cc(O)cc(-c3ncc4c(N5CCC[C@@](C)(O)C5)nc(OC[C@@]56CCCN5[C@H](COC(=O)N5CC7(CCC(N8CCC(c9ccc%10c(c9)n(C)c(=O)n%10C9CCC(=O)NC9=O)CC8)CC7)C5)CC6)nc4c3F)c12 (stereo partly drawn) [Compound 467, ((3S,7aS)-7a-(((7-(8-ethyl-7-fluoro-3-hydroxynaphthalen-1-yl)-8-fluoro-4-((R)-3-hydroxy-3-methylpiperidin-1-yl)pyrido[4,3-d]pyrimidin-2-yl)oxy)methyl)hexahydro-1H-pyrrolizin-3-yl)methyl 7-(4-(1-(2,6-dioxopiperidin-3-yl)-3-methyl-2-oxo-2,3-dihydro-1H-benzo[d]imidazol-5-yl)piperidin-1-yl)-2-azaspiro[3.5]nonane-2-carboxylate]
[1]
  DC50: < 1 nM
[2]
  DC50: < 10 nM
[3]; class symbols
  DC50: < 100 nM

## CCc1c(F)ccc2cc(O)cc(-c3ncc4c(N5CCC[C@@](C)(O)C5)nc(OC[C@@]56CCCN5[C@H](COC(=O)N5CC7(CN(CC8CCN(c9ccc%10c(c9)n(C)c(=O)n%10C9CCC(=O)NC9=O)CC8)C7)C5)CC6)nc4c3F)c12 (stereo partly drawn) [Compound 462, ((3S,7aS)-7a-(((7-(8-ethyl-7-fluoro-3-hydroxynaphthalen-1-yl)-8-fluoro-4-((R)-3-hydroxy-3-methylpiperidin-1-yl)pyrido[4,3-d]pyrimidin-2-yl)oxy)methyl)hexahydro-1H-pyrrolizin-3-yl)methyl 6-((1-(1-(2,6-dioxopiperidin-3-yl)-3-methyl-2-oxo-2,3-dihydro-1H-benzo[d]imidazol-5-yl)piperidin-4-yl)methyl)-2,6-diazaspiro[3.3]heptane-2-carboxylate]
[1]
  DC50: 1 to 10 nM
[2]
  DC50: < 10 nM
[3]; class symbols
  DC50: < 100 nM

## Cn1c(=O)n(C2CCC(=O)NC2=O)c2ccc(C3CCN(CC4CCN(C(=O)OC[C@@H]5CC[C@]6(COc7nc(N8CCC[C@@](C)(O)C8)c8cnc(-c9cc(O)cc%10ccc(F)c(F)c9%10)c(F)c8n7)CCCN56)CC4)CC3)cc21 (stereo partly drawn) [Compound 410, ((3S,7aS)-7a-(((7-(7,8-difluoro-3-hydroxynaphthalen-1-yl)-8-fluoro-4-((R)-3-hydroxy-3-methylpiperidin-1-yl)pyrido[4,3-d]pyrimidin-2-yl)oxy)methyl)hexahydro-1H-pyrrolizin-3-yl)methyl 4-((4-(1-(2,6-dioxopiperidin-3-yl)-3-methyl-2-oxo-2,3-dihydro-1H-benzo[d]imidazol-5-yl)piperidin-1-yl)methyl)piperidine-1-carboxylate]
[1]
  DC50: < 1 nM
[2]
  DC50: < 10 nM
[3]; class symbols
  DC50: < 100 nM

## CCc1c(F)ccc2cc(O)cc(-c3ncc4c(N5CCC[C@@](C)(O)C5)nc(OC[C@@]56CCCN5[C@H](COC(=O)N5CCC(CN7CCC(c8ccc9c(C%10CCC(=O)NC%10=O)nn(C)c9c8F)CC7)CC5)CC6)nc4c3F)c12 (stereo partly drawn) [Compound 100, [(3S,8S)-8-[[7-(8-ethyl-7-fluoro-3-hydroxy-1-naphthyl)-8-fluoro-4-[(3R)-3-hydroxy-3-methyl-1-piperidyl]pyrido[4,3-d]pyrimidin-2-yl]oxymethyl]-1,2,3,5,6,7-hexahydropyrrolizin-3-yl]methyl 4-[[4-[3-(2,6-dioxo-3-piperidyl)-7-fluoro-1-methyl-indazol-6-yl]-1-piperidyl]methyl]piperidine-1-carboxylate]
[1]
  DC50: < 1 nM
[2]
  DC50: < 10 nM
[3]; class symbols
  DC50: < 100 nM
  Dmax: > 50%

## CCc1cccc2cc(O)cc(-c3cc4nc(OC[C@@]56CCCN5[C@H](COC(=O)N5CCC(CN7CCC(c8ccc9c(c8)n(C)c(=O)n9C8CCC(=O)NC8=O)CC7)CC5)CC6)nc(N5CCC[C@@](C)(O)C5)c4cn3)c12 (stereo partly drawn) [Compound 378, ((3S,7aS)-7a-(((7-(8-ethyl-3-hydroxynaphthalen-1-yl)-4-((R)-3-hydroxy-3-methylpiperidin-1-yl)pyrido[4,3-d]pyrimidin-2-yl)oxy)methyl)hexahydro-1H-pyrrolizin-3-yl)methyl 4-((4-(1-(2,6-dioxopiperidin-3-yl)-3-methyl-2-oxo-2,3-dihydro-1H-benzo[d]imidazol-5-yl)piperidin-1-yl)methyl)piperidine-1-carboxylate]
[1]
  DC50: < 1 nM
[2]
  DC50: < 10 nM
[3]; class symbols
  DC50: < 100 nM

## CCc1c(F)ccc2cc(O)cc(-c3ncc4c(N5CCC[C@H](N)C5)nc(OC[C@@]56CCCN5[C@H](COC(=O)N5CCC7(CC5)CC(N5CCC(c8ccc9c(c8)n(C)c(=O)n9C8CCC(=O)NC8=O)CC5)C7)CC6)nc4c3F)c12 (stereo partly drawn) [Compound 477, ((3S,7aS)-7a-(((4-((S)-3-aminopiperidin-1-yl)-7-(8-ethyl-7-fluoro-3-hydroxynaphthalen-1-yl)-8-fluoropyrido[4,3-d]pyrimidin-2-yl)oxy)methyl)hexahydro-1H-pyrrolizin-3-yl)methyl 2-(4-(1-(2,6-dioxopiperidin-3-yl)-3-methyl-2-oxo-2,3-dihydro-1H-benzo[d]imidazol-5-yl)piperidin-1-yl)-7-azaspiro[3.5]nonane-7-carboxylate]
[1]
  DC50: ≥ 10 nM
[2]
  DC50: > 100 nM
[3]; [4]
  DC50: > 100 nM

## C#Cc1c(F)ccc2cc(O)cc(-c3ncc4c(N5CCC[C@@](C)(O)C5)nc(OC[C@@]56CCCN5[C@H](COC(=O)N5CCC(N7CC(N8CCC(c9ccc%10c(c9)n(C)c(=O)n%10C9CCC(=O)NC9=O)CC8)C7)CC5)CC6)nc4c3F)c12 (stereo partly drawn) [Compound 414, ((3S,7aS)-7a-(((7-(8-ethynyl-7-fluoro-3-hydroxynaphthalen-1-yl)-8-fluoro-4-((R)-3-hydroxy-3-methylpiperidin-1-yl)pyrido[4,3-d]pyrimidin-2-yl)oxy)methyl)hexahydro-1H-pyrrolizin-3-yl)methyl 4-(3-(4-(1-(2,6-dioxopiperidin-3-yl)-3-methyl-2-oxo-2,3-dihydro-1H-benzo[d]imidazol-5-yl)piperidin-1-yl)azetidin-1-yl)piperidine-1-carboxylate]
[1]
  DC50: ≥ 10 nM
[2]
  DC50: 10 to 100 nM
[3]; class symbols
  DC50: < 100 nM

## CCc1c(F)ccc2cc(O)cc(-c3ncc4c(N5CCC[C@@](C)(N)C5)nc(OC[C@@]56CCCN5[C@H](COC(=O)N5CCC7(CC5)CC(N5CCC(c8ccc9c(c8)n(C)c(=O)n9C8CCC(=O)NC8=O)CC5)C7)CC6)nc4c3F)c12 (stereo partly drawn) [Compound 479, ((3S,7aS)-7a-(((4-((R)-3-amino-3-methylpiperidin-1-yl)-7-(8-ethyl-7-fluoro-3-hydroxynaphthalen-1-yl)-8-fluoropyrido[4,3-d]pyrimidin-2-yl)oxy)methyl)hexahydro-1H-pyrrolizin-3-yl)methyl 2-(4-(1-(2,6-dioxopiperidin-3-yl)-3-methyl-2-oxo-2,3-dihydro-1H-benzo[d]imidazol-5-yl)piperidin-1-yl)-7-azaspiro[3.5]nonane-7-carboxylate]
[1]
  DC50: ≥ 10 nM
[2]
  DC50: > 100 nM
[3]; [4]
  DC50: > 100 nM

## C#Cc1c(F)ccc2cc(O)cc(-c3ncc4c(N5CCC[C@@](C)(O)C5)nc(OC[C@@]56CCCN5[C@H](COC(=O)N5CCC(CC#Cc7cccc8c7n(C)c(=O)n8C7CCC(=O)NC7=O)CC5)CC6)nc4c3F)c12 (stereo partly drawn) [Compound 374, ((3S,7aS)-7a-(((7-(8-ethynyl-7-fluoro-3-hydroxynaphthalen-1-yl)-8-fluoro-4-((R)-3-hydroxy-3-methylpiperidin-1-yl)pyrido[4,3-d]pyrimidin-2-yl)oxy)methyl)hexahydro-1H-pyrrolizin-3-yl)methyl 4-(3-(1-(2,6-dioxopiperidin-3-yl)-3-methyl-2-oxo-2,3-dihydro-1H-benzo[d]imidazol-4-yl)prop-2-yn-1-yl)piperidine-1-carboxylate]
[1]
  DC50: 1 to 10 nM
[2]
  DC50: 10 to 100 nM
[3]; class symbols
  DC50: 100 to 300 nM
